Read-outs that look alike come from different tables or passages of the source.
How the values were obtained:
Format in all cases: cell-based
[1] = tested on: rat lung metastases, histocultures; experiment: Drug effect in histocultures of rat lung metastases (inhibition of 3H-thymidine incorporation)
[2] = tested on: Human prostate PC3 tumor cells; experiment: aFGF/bFGF-induced resistance and reversal by suramin, sulforhodamine B assay; details: for Resistance, Folds, aFGF 0.3 ng/ml + bFGF 1 ng/ml / Resistance, Folds, aFGF 1 ng/ml + bFGF 3 ng/ml: no suramin, relative to control
Protocol: The experimental conditions are described briefly below. […] Cell number was measured using the sulforhodamine B assay which measures the total protein concentration. […] The FGF-induced resistance was dependent on the FGF concentrations, with a higher resistance at higher FGF concentrations.

[3] = tested on: Human breast BC19 (subline of MCF7 transfected with mdr1); experiment: FGF-induced resistance, inhibition of BrdU incorporation; details: read-out: Drug concentration needed to produce 50% inhibition
How it was run: (§1)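 Monolayers were pretreated for 96 h with human recombinant aFGF and/or bFGF in medium with 1% FBS (protein adjusted to 2 mg/ml, renewed every other day) and then drug-treated for 96 h. Antiproliferative effect was read as inhibition of BrdU incorporation.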

[4] = tested on: Human prostate PC3; experiment: as above; details: Homo sapiens, read-out: Drug concentration needed to produce 50% inhibition
How it was run: as §1

[5] = tested on: human prostate PC3-LN tumor cells; experiment: cells; details: read-out: IC50 in the monolayer cultures of PC3-LN cells
[6] = tested on: rat MAT-LyLu tumor cells; experiment: Reversal of CM-induced resistance by FGF antibodies and suramin, BrdU incorporation; details: Rattus norvegicus, read-out: IC50 in the presence of 1.6 micromolar suramin; CM of lung metastases histocultures; unchanged in the absence or presence of 5 microgram/ml anti-bFGF antibody
Protocol: The source of CM was lung histocultures for the aFGF experiment, and early monolayer lung cultures for the bFGF experiment. The study used four controls: no CM (left solid curves, open circles); addition of 5 μg/ml aFGF or bFGF antibody but no CM (inverted filled triangle, overlaps with the left control curve); addition of CM but no antibody (right solid curves, open square); addition of CM plus a nonspecific antibody, IgG (5 μg/ml, filled diamond, overlaps with the right CM-control curve). Dotted curves, from right to left, addition of aFGF or bFGF antibody concentrations of 0.05 μg/ml (filled circle); 0.1 μg/ml (filled square); 1 or 0.5 μg/ml (filled triangle); and 5 μg/ml (open inverted triangle). […] Similar results were also found for human PC3 prostate tumor cells.
The first study used specific inhibitors of extracellular aFGF and bFGF, i.e., monoclonal antibodies (FIG. 2A). […] In the presence of the active CM, the bFGF antibody produced a concentration-dependent reversal of the CM-induced chemoresistance, with complete reversal by 5 microgram/ml antibody, whereas a nonspecific antibody (i.e., non-immune rabbit IgG) had no effect. For aFGF, the antibody treatment partially reversed the CM-induced resistance; the maximum reversal was about 60% that was obtained with 1 microgram/ml antibody with no significant additional reversal at a 5-fold higher concentration. The second study evaluated the effect of removing aFGF and/or bFGF from the active CM by immunoprecipitation. Removal of bFGF abolished the resistance, whereas removal of aFGF only partially reversed the CM effect. These two studies indicate that both aFGF and bFGF were involved in the resistance, but had different roles.
This study was performed using the rat MAT-LyLu tumor cells as the model tumor cells and using doxorubicin and paclitaxel as the model anticancer agents. The CM used to induce resistance was collected from histocultures of lung metastases (see Table 1). Five microgram/ml anti-bFGF antibody was added.

[7] = tested on: normal rat intestinal epithelial cells (IEC6); experiment: Protection of normal intestinal epithelial cells by aFGF/bFGF, BrdU incorporation; details: drug 24 hours
Protocol: These cells were derived from normal, noncancerous intestinal epithelium. […] Drug effect was measured as the reduction of bromodeoxyuridine incorporation in treated cells relative to untreated controls.

[8] = Homo sapiens, read-out: IC50, Control (drug treatment only, without FGF treatment), No suramin, drug 96 hours
[9] = Homo sapiens, read-out: IC50, aFGF 0.3 ng/ml + bFGF 1 ng/ml, No suramin, FGF pretreatment 96 hours, drug 96 hours
[10] = Homo sapiens, read-out: IC50, aFGF 1 ng/ml + bFGF 3 ng/ml, No suramin, FGF pretreatment 96 hours, drug 96 hours
[11] = read-out: IC50, Control (without FGF treatment), Suramin, 15 μM, drug 96 hours with 15 μM suramin
[12] = read-out: IC50, aFGF 0.3 ng/ml + bFGF 1 ng/ml, With suramin, FGF pretreatment 96 hours, drug 96 hours with 15 micromolar suramin
[13] = read-out: IC50, aFGF 1 ng/ml + bFGF 3 ng/ml, With suramin, FGF pretreatment 96 hours, drug 96 hours with 15 micromolar suramin
[14] = 96 h, r-aFGF + r-bFGF 0.04 ± 1 ng/ml
[15] = 96 h, r-aFGF + r-bFGF 0.08 ± 1 ng/ml
[16] = 96 h, r-aFGF + r-bFGF 0.32 ± 1 ng/ml
[17] = 96 h, r-aFGF + r-bFGF 0.64 ± 1 ng/ml
[18] = 96 h, r-aFGF + r-bFGF 1 ± 1 ng/ml
[19] = IEC-6, absence of aFGF and bFGF
[20] = IEC-6, pretreated with 1 ng/ml aFGF and 3 ng/ml bFGF for 96 hours

| Structure (SMILES) | IC50 [2, 8] | IC50 [2, 9] | IC50 [2, 10] | Resistance, Folds, aFGF 0.3 ng/ml + bFGF 1 ng/ml [2] | Resistance, Folds, aFGF 1 ng/ml + bFGF 3 ng/ml [2] | IC50 [2, 11] | IC50 [2, 12] | IC50 [2, 13] | IC50 ([3]; r-bFGF 0 ng/ml) | IC50 ([3]; r-bFGF 0.01 ng/ml) | IC50 ([3]; r-bFGF 0.1 ng/ml) | IC50 ([3]; r-bFGF 1 ng/ml) | IC50 [4, 14] | IC50 [4, 15] | IC50 [4, 17] | IC50 [4, 18] | IC50 ([4]; 96 h, r-aFGF + r-bFGF) | IC50 ([4]; r-aFGF 0 ng/ml) | IC50 ([4]; r-aFGF 1 ng/ml) | IC50 ([4]; r-aFGF 10 ng/ml) | other results |
| --- | --- | --- | --- | --- | --- | --- | --- | --- | --- | --- | --- | --- | --- | --- | --- | --- | --- | --- | --- | --- | --- |
| O=c1[nH]cc(F)c(=O)[nH]1 [5-Fluorouracil] | 2210 nM | 5050 nM | 12600 nM | 2.29 Folds | 5.71 Folds | 2390 nM | 2160 nM | 2140 nM | 975 nM | 1070 nM | 1370 nM | 1510 nM | 761 nM | 1150 nM | 3770 nM | 5740 nM | 1640 nM | 810 nM | 815 nM | 695 nM | IC50 ([1]; Histocultures, Lung, 96 hours, read-out: Concentration producing 50% inhibition): 122000 ± 25000 nM; IC50 [4, 16]: 2540 nM; IC50 ([4]; r-aFGF 50 ng/ml): 732 nM; IC50 ([4]; r-bFGF 0 ng/ml): 741 nM; IC50 ([4]; r-bFGF 1 ng/ml): 846 nM; IC50 ([4]; r-bFGF 10 ng/ml): 2410 nM; IC50 ([4]; r-bFGF 50 ng/ml): 4300 nM |
| COc1cccc2c1C(=O)c1c(O)c3c(c(O)c1C2=O)C[C@@](O)(C(=O)CO)C[C@@H]3O[C@H]1C[C@H](N)[C@H](O)[C@H](C)O1 [Doxorubicin] | 27.8 nM | 145 nM | 281 nM | 5.23 Folds | 10.11 Folds | 35.9 nM | 29.8 nM | 27.9 nM | 128 nM | 150 nM | 270 nM | 407 nM | 8.5 nM | 15.2 nM | 84.8 nM | 107 nM | 35.3 nM | 8.2 nM | 8.3 nM | 8.1 nM | IC50 ([4]; 96 h, r-aFGF + r-bFGF 0 ng/ml): 8.2 nM; IC50 [4, 16]: 62.2 nM; IC50 ([4]; r-aFGF 50 ng/ml): 8.4 nM; IC50 ([4]; r-bFGF 0 ng/ml): 8.1 nM; IC50 ([4]; r-bFGF 1 ng/ml): 8.51 nM; IC50 ([4]; r-bFGF 10 ng/ml): 23.8 nM; IC50 ([4]; r-bFGF 50 ng/ml): 50.8 nM; IC50 [5]: 17 nM; IC50 [6]: 13 nM; IC50 [7, 19]: 292 nM; IC50 [7, 20]: 544 nM |
| CC(=O)O[C@H]1C(=O)[C@@]2(C)[C@H]([C@H](OC(=O)c3ccccc3)[C@]3(O)C[C@H](OC(=O)[C@H](O)[C@@H](NC(=O)c4ccccc4)c4ccccc4)C(C)=C1C3(C)C)[C@]1(OC(C)=O)CO[C@@H]1C[C@@H]2O [Paclitaxel] | 2.16 nM | 6.53 nM | 12.1 nM | 3.02 Folds | 5.59 Folds | 2.13 nM | 1.88 nM | 2.01 nM | 59.6 nM | 112 nM | 183 nM | 236 nM | 1.2 nM | 2.1 nM | 5.8 nM | 6.9 nM | 3.1 nM | 1.2 nM | 1.2 nM | 1.1 nM | IC30 ([1]; 24 h, read-out: Concentration producing 50% inhibition (data shown are the concentrations that produced 30% inhibition)): > 1800 nM; IC50 ([4]; 96 h, r-aFGF + r-bFGF 0 ng/ml): 1.2 nM; IC50 ([4]; r-aFGF 50 ng/ml): 1.2 nM; IC50 ([4]; r-bFGF 0 ng/ml): 1.2 nM; IC50 ([4]; r-bFGF 1 ng/ml): 1.2 nM; IC50 ([4]; r-bFGF 10 ng/ml): 2.1 nM; IC50 ([4]; r-bFGF 50 ng/ml): 3.3 nM; IC50 [5]: 8 nM; IC50 [6]: 14 nM; IC50 [7, 19]: 491 nM; IC50 [7, 20]: 1450 nM |

— patent publication US20040010001A1, “Methods and compositions for modulating cell proliferation and cell death” (priority 1999, published 2004)
